Measurements from the supplement of paper PMC10307832.

Assays:
Test in all cases: relative viability (nuclei count vs DMSO), 5 days (fraction); higher = more cells survive
SW 900 = test system: SW 900
In short: (§1)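 Medians of duplicate plates are given as relative viability. That measure is the nuclei count in treated wells divided by the count in vehicle wells. Counts were taken on 4× images of lung cancer cell lines in 1536-well plates, 5 days after pin-tool dosing the day after seeding with one drug alone or a fixed anchor-drug dose plus five library-drug doses (not always all listed) in √10 steps.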

NCI-H522 = test system: NCI-H522
In short: as §1

NCI-H1648 = test system: NCI-H1648
In short: as §1

NCI-H2342 = test system: NCI-H2342
In short: as §1

EBC-1 = test system: EBC-1
In short: as §1

Calu-6 = test system: Calu-6
In short: as §1

IA-LM = test system: IA-LM
In short: as §1

NCI-H1703 = test system: NCI-H1703
In short: as §1

NCI-H1299 = test system: NCI-H1299
In short: as §1

A549 = test system: A549
In short: as §1

NCI-H1563 = test system: NCI-H1563
In short: as §1

`Cc1cnc(-c2cnc(NCCNc3ccc(C#N)cn3)nc2-c2ccc(Cl)cc2Cl)[nH]1` + CC(=O)Nc1cccc(-n2c(=O)n(C3CC3)c(=O)c3c(Nc4ccc(I)cc4F)n(C)c(=O)c(C)c32)c1 [Trametinib] (partner 0.02 µM) showed a relative viability (SW 900; first compound 0.08 µM) of 0.905, a relative viability (SW 900; first compound 0.253 µM) of 0.629 and a relative viability (SW 900; first compound 0.8 µM) of 0.772. For the same compound, the relative viability (SW 900; first compound 2.53 µM) was 0.765, the relative viability (NCI-H522; first compound 0.08 µM) was 0.909 and the relative viability (NCI-H522; first compound 0.253 µM) was 0.719. For the same compound, the relative viability (NCI-H522; first compound 0.8 µM) was 0.799, the relative viability (NCI-H522; first compound 2.53 µM) was 0.722 and the relative viability (NCI-H1648; first compound 0.08 µM) was 0.5. The relative viability (NCI-H1648; first compound 0.253 µM) was 0.381, the relative viability (NCI-H1648; first compound 0.8 µM) was 0.476 and the relative viability (NCI-H1648; first compound 2.53 µM) was 0.456. The relative viability (NCI-H2342; first compound 0.08 µM) was 0.923, the relative viability (NCI-H2342; first compound 0.253 µM) was 0.653 and the relative viability (NCI-H2342; first compound 0.8 µM) was 0.801. The relative viability (NCI-H2342; first compound 2.53 µM) was 0.697.

`Cc1cnc(-c2cnc(NCCNc3ccc(C#N)cn3)nc2-c2ccc(Cl)cc2Cl)[nH]1` + CC(=O)c1c(C)c2cnc(Nc3ccc(N4CCNCC4)cn3)nc2n(C2CCCC2)c1=O [Palbociclib] (partner 0.5 µM) was tested, and the relative viability (SW 900; first compound 0.08 µM) was 0.565, the relative viability (SW 900; first compound 0.253 µM) was 0.513 and the relative viability (SW 900; first compound 0.8 µM) was 0.528. It also gave a relative viability (SW 900; first compound 2.53 µM) of 0.515, a relative viability (NCI-H522; first compound 0.08 µM) of 1.15 and a relative viability (NCI-H522; first compound 0.253 µM) of 0.927. It also gave a relative viability (NCI-H522; first compound 0.8 µM) of 0.974, a relative viability (NCI-H522; first compound 2.53 µM) of 0.862 and a relative viability (NCI-H1648; first compound 0.08 µM) of 0.267. The relative viability (NCI-H1648; first compound 0.253 µM) was 0.243, the relative viability (NCI-H1648; first compound 0.8 µM) was 0.265 and the relative viability (NCI-H1648; first compound 2.53 µM) was 0.265. For the same compound, the relative viability (NCI-H2342; first compound 0.08 µM) was 0.522, the relative viability (NCI-H2342; first compound 0.253 µM) was 0.516 and the relative viability (NCI-H2342; first compound 0.8 µM) was 0.557. The relative viability (NCI-H2342; first compound 2.53 µM) was 0.463.

`O=c1[nH]c2ccccc2n1C1CCN(CCCC(c2ccc(F)cc2)c2ccc(F)cc2)CC1` [Pimozide] + CS(=O)(=O)N1CCN(Cc2cc3nc(-c4cccc5[nH]ncc45)nc(N4CCOCC4)c3s2)CC1 [Pictilisib] (partner 1 µM) gave a relative viability (EBC-1; first compound 0.08 µM) of 0.393, a relative viability (EBC-1; first compound 0.253 µM) of 0.37 and a relative viability (EBC-1; first compound 0.8 µM) of 0.364. It also gave a relative viability (EBC-1; first compound 2.53 µM) of 0.269, a relative viability (EBC-1; first compound 8 µM) of 0.27 and a relative viability (Calu-6; first compound 0.08 µM) of 0.952. It also gave a relative viability (Calu-6; first compound 0.253 µM) of 0.984, a relative viability (Calu-6; first compound 0.8 µM) of 0.808 and a relative viability (Calu-6; first compound 2.53 µM) of 0.84. For the same compound, the relative viability (Calu-6; first compound 8 µM) was 0.872, the relative viability (IA-LM; first compound 0.253 µM) was 0.28 and the relative viability (IA-LM; first compound 0.8 µM) was 0.288. For the same compound, the relative viability (IA-LM; first compound 2.53 µM) was 0.404, the relative viability (IA-LM; first compound 8 µM) was 0.438 and the relative viability (NCI-H1703; first compound 0.08 µM) was 0.24. It also gave a relative viability (NCI-H1703; first compound 0.253 µM) of 0.273, a relative viability (NCI-H1703; first compound 0.8 µM) of 0.296 and a relative viability (NCI-H1703; first compound 2.53 µM) of 0.264. It also gave a relative viability (NCI-H1703; first compound 8 µM) of 0.246, a relative viability (NCI-H1299; first compound 0.08 µM) of 0.788 and a relative viability (NCI-H1299; first compound 0.253 µM) of 0.729. The relative viability (NCI-H1299; first compound 0.8 µM) was 0.666, the relative viability (NCI-H1299; first compound 2.53 µM) was 0.745 and the relative viability (NCI-H1299; first compound 8 µM) was 0.703. The relative viability (A549; first compound 0.08 µM) was 0.524, the relative viability (A549; first compound 0.253 µM) was 0.472 and the relative viability (A549; first compound 0.8 µM) was 0.494. It also gave a relative viability (A549; first compound 2.53 µM) of 0.385, a relative viability (A549; first compound 8 µM) of 0.448 and a relative viability (NCI-H1563; first compound 0.08 µM) of 0.654. It also gave a relative viability (NCI-H1563; first compound 0.253 µM) of 0.646, a relative viability (NCI-H1563; first compound 0.8 µM) of 0.667 and a relative viability (NCI-H1563; first compound 2.53 µM) of 0.642. It also gave a relative viability (NCI-H1563; first compound 8 µM) of 0.637.

`O=c1[nH]c2ccccc2n1C1CCN(CCCC(c2ccc(F)cc2)c2ccc(F)cc2)CC1` [Pimozide] + C[C@@H](Oc1cc(-c2cnn(C3CCNCC3)c2)cnc1N)c1c(Cl)ccc(F)c1Cl [Crizotinib] (partner 1 µM) showed a relative viability (EBC-1; first compound 0.08 µM) of 0.19, a relative viability (EBC-1; first compound 0.253 µM) of 0.232 and a relative viability (EBC-1; first compound 0.8 µM) of 0.199. The relative viability (EBC-1; first compound 2.53 µM) was 0.175, the relative viability (EBC-1; first compound 8 µM) was 0.152 and the relative viability (Calu-6; first compound 0.08 µM) was 0.781. The relative viability (Calu-6; first compound 0.253 µM) was 0.814, the relative viability (Calu-6; first compound 0.8 µM) was 0.793 and the relative viability (Calu-6; first compound 2.53 µM) was 0.679. The relative viability (Calu-6; first compound 8 µM) was 0.624, the relative viability (IA-LM; first compound 0.08 µM) was 0.975 and the relative viability (IA-LM; first compound 0.253 µM) was 0.88. The relative viability (IA-LM; first compound 0.8 µM) was 0.988, the relative viability (IA-LM; first compound 2.53 µM) was 0.879 and the relative viability (IA-LM; first compound 8 µM) was 0.859. It also gave a relative viability (NCI-H1703; first compound 0.08 µM) of 0.489, a relative viability (NCI-H1703; first compound 0.253 µM) of 0.852 and a relative viability (NCI-H1703; first compound 0.8 µM) of 0.666. For the same compound, the relative viability (NCI-H1703; first compound 2.53 µM) was 0.403, the relative viability (NCI-H1703; first compound 8 µM) was 0.545 and the relative viability (NCI-H1299; first compound 0.08 µM) was 0.955. It also gave a relative viability (NCI-H1299; first compound 0.253 µM) of 0.838, a relative viability (NCI-H1299; first compound 0.8 µM) of 0.934 and a relative viability (NCI-H1299; first compound 2.53 µM) of 0.811. For the same compound, the relative viability (NCI-H1299; first compound 8 µM) was 0.885, the relative viability (A549; first compound 0.08 µM) was 0.756 and the relative viability (A549; first compound 0.253 µM) was 0.668. It also gave a relative viability (A549; first compound 0.8 µM) of 0.643, a relative viability (A549; first compound 2.53 µM) of 0.658 and a relative viability (A549; first compound 8 µM) of 0.644. For the same compound, the relative viability (NCI-H1563; first compound 0.08 µM) was 0.824, the relative viability (NCI-H1563; first compound 0.253 µM) was 0.844 and the relative viability (NCI-H1563; first compound 0.8 µM) was 0.803. The relative viability (NCI-H1563; first compound 2.53 µM) was 0.775 and the relative viability (NCI-H1563; first compound 8 µM) was 0.645.
